# Experimental data taken from doi:10.1101/2024.06.16.599186v1 (biorxiv, 2024).
# Where a name gives a salt, the structure may show the parent alone.
# Target: MoGep4 (Pyricularia oryzae, UniProt G4N1T8)
# Sequence (G4N1T8 1-216): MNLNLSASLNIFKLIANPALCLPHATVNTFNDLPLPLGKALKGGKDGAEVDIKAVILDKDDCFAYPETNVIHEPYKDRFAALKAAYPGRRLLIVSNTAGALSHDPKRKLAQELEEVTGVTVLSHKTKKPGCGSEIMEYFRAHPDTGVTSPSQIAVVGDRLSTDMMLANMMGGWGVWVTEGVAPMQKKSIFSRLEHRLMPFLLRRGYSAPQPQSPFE
smiles,measurement,value
"CCCCC(CC)CNC(=N)NC(=N)NCCCCCCNC(=N)NC(=N)NCC(CC)CCCC (stereo not shown) [AXD, alexidine dihydrochloride]",% inhibition at 4 μM,62.9%
